Assays:
[1] = target: T1, Human Indoleamine 2,3-dioxygenase (IDO) (Homo sapiens, UniProt P14902); assay: Human IDO enzymatic assay (kynurenine level); type: biochemical; conditions: 6 nM IDO, 10 μM L-Trp; geometric mean; read-out: IDO1 GMean: IC50 (μM) (Biochemical Assay)
T1 construct: His tag (N); made in house; host or cells: E. coli
Protocol: (§1) Human Indoleamine 2,3-dioxygenase (IDO) and Tryptophan 2,3-dioxygenase (TDO) enzymatic assay
(§2) Human IDO or TDO with N-terminal His tag is purified in E. coli. The IDO enzymatic assay is performed using 6 nM IDO and 10 μM L-Trp in the presence of 10 mM ascorbic acid, 5 μM methylene blue, 100 nM catalase and 0.01% Tween 20 in 50 mM sodium phosphate buffer (pH 6.5). 19 μL of above reaction mixture is added to wells of 384 well reaction plate containing […] of various concentrations of test compound or DMSO vehicle and incubated for 20 minutes at room temperature. The TDO enzymatic reaction assay is performed using 1 nM TDO and 350 μM L-Trp in the presence of 10 mM ascorbic acid, 0.4 μM methylene blue, 100 nM catalase and 0.01% Tween 20 in 50 mM sodium phosphate buffer (pH 6.5). 19 μL of above reaction mixture is added to wells of 384 well reaction plate containing 1 μL of various concentrations of test compound or DMSO vehicle and incubated for 70 minutes at room temperature. 16 wells containing all the components of reaction mixture and 5% DMSO serve as high control. 16 well containing all the components except enzyme of reaction mixture and 5% DMSO serves as low control. Both IDO and TDO enzymatic reactions are stopped by addition of […] of 30% TCA and incubated 30 minutes at 50° C. to hydrolyze N-formylkynurenine produced by IDO or TDO to kynurenine. Upon measuring the kynurenine level, the percentage inhibition is calculated at individual concentrations relative to high and low controls. The data is analyzed by using nonlinear regression to generate IC50 values.

[2] = target: T2, Human Tryptophan 2,3-dioxygenase (TDO) (Homo sapiens, UniProt P48775); assay: Human TDO enzymatic assay (kynurenine level); type: biochemical; conditions: 1 nM TDO, 350 μM L-Trp; geometric mean; read-out: TDO GMean: IC50 (μM) (Biochemical Assay)
T2 construct: His tag (N); made in house; host or cells: E. coli
Protocol: as §1, §2

T2 sequence (P48775 whole entry): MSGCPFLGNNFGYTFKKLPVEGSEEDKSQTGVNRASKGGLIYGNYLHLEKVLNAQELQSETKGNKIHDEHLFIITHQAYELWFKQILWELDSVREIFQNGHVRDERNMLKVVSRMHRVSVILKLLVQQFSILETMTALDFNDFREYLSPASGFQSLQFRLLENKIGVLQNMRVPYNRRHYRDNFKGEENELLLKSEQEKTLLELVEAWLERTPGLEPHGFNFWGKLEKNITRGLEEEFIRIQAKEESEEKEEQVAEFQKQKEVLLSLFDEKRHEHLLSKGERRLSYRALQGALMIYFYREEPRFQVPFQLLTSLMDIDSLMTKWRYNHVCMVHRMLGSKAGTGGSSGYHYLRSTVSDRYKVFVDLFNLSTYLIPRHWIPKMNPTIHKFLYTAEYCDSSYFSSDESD
T1 sequence (P14902 whole entry): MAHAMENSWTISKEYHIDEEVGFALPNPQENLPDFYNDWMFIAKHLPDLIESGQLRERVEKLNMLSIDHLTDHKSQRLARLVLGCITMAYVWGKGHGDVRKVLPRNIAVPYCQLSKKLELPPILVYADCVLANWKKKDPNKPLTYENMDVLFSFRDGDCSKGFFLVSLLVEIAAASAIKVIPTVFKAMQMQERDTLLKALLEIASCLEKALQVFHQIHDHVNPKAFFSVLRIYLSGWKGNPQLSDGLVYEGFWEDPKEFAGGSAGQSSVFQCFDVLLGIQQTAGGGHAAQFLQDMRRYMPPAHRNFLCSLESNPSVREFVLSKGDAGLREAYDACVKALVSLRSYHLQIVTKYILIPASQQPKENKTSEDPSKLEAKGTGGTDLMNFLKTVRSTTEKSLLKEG

Row | IC50 [1] [µM] | IC50 [2] [µM] | Compound
1 | 0.0001 to 10 | 0.0001 to 10 | N#CCC(=O)N1CCC(C(F)(F)[C@H](O)c2c3c(cc4cn[nH]c24)CC3)CC1 [Compound P-0613, (R)-3-(4-(2-(5,6-dihydro-1H-cyclobuta[f]indazol-7-yl)-1,1-difluoro-2-hydroxyethyl)piperidin-1-yl)-3-oxopropanenitrile]
2 | 0.0001 to 10 | 0.0001 to 10 | COCC(=O)N1CCC(C(F)(F)[C@H](O)c2c3c(cc4cn[nH]c24)CC3)CC1 [Compound P-0614, (R)-1-(4-(2-(5,6-dihydro-1H-cyclobuta[f]indazol-7-yl)-1,1-difluoro-2-hydroxyethyl)piperidin-1-yl)-2-methoxyethan-1-one]
3 | 0.0001 to 10 | 0.0001 to 10 | O=C(CO)N1CCC(C(F)(F)[C@H](O)c2c3c(cc4cn[nH]c24)CC3)CC1 [Compound P-0615, (R)-1-(4-(2-(5,6-dihydro-1H-cyclobuta[f]indazol-7-yl)-1,1-difluoro-2-hydroxyethyl)piperidin-1-yl)-2-hydroxyethan-1-one]
4 | 0.0001 to 10 | 10 to 100 | CC1(C)C(C(=O)N2CCC(C(F)(F)[C@H](O)c3c4c(cc5cn[nH]c35)CC4)CC2)C1(C)C [Compound P-0616, (R)-(4-(2-(5,6-dihydro-1H-cyclobuta[f]indazol-7-yl)-1,1-difluoro-2-hydroxyethyl)piperidin-1-yl)(2,2,3,3-tetramethylcyclopropyl) methanone]
5 | 0.0001 to 10 | 0.0001 to 10 | O=C(CC1CCOCC1)N1CCC(C(F)(F)[C@H](O)c2c3c(cc4cn[nH]c24)CC3)CC1 [Compound P-0617, (R)-1-(4-(2-(5,6-dihydro-1H-cyclobuta[f]indazol-7-yl)-1,1-difluoro-2-hydroxyethyl)piperidin-1-yl)-2-(tetrahydro-2H-pyran-4-yl)ethan-1-one]
6 | 0.0001 to 10 | 0.0001 to 10 | O=C(C1CCOCC1)N1CCC(C(F)(F)[C@H](O)c2c3c(cc4cn[nH]c24)CC3)CC1 [Compound P-0618, (R)-(4-(2-(5,6-dihydro-1H-cyclobuta[f]indazol-7-yl)-1,1-difluoro-2-hydroxyethyl)piperidin-1-yl)(tetrahydro-2H-pyran-4-yl)methanone]
7 | 0.0001 to 10 | 0.0001 to 10 | O=C(c1cccnc1)N1CCC(C(F)(F)[C@H](O)c2c3c(cc4cn[nH]c24)CC3)CC1 [Compound P-0619, (R)-(4-(2-(5,6-dihydro-1H-cyclobuta[f]indazol-7-yl)-1,1-difluoro-2-hydroxyethyl)piperidin-1-yl) (pyridin-3-yl)methanone]
8 | 0.0001 to 10 | 0.0001 to 10 | O=C(c1ccc(C(F)(F)F)nc1)N1CCC(C(F)(F)[C@H](O)c2c3c(cc4cn[nH]c24)CC3)CC1 [Compound P-0620, (R)-(4-(2-(5,6-dihydro-1H-cyclobuta[f]indazol-7-yl)-1,1-difluoro-2-hydroxyethyl)piperidin-1-yl)(6-(trifluoromethyl)pyridin-3-yl)methanone]
9 | 0.0001 to 10 | 0.0001 to 10 | O=C(c1ccc(Cl)cn1)N1CCC(C(F)(F)[C@H](O)c2c3c(cc4cn[nH]c24)CC3)CC1 [Compound P-0621, (R)-(5-chloropyridin-2-yl)(4-(2-(5,6-dihydro-1H-cyclobuta[f]indazol-7-yl)-1,1-difluoro-hydroxyethyl)piperidin-1-yl) methanone]
10 | 0.0001 to 10 | 0.0001 to 10 | O=C(CN1CCOCC1)N1CCC(C(F)(F)[C@H](O)c2c3c(cc4cn[nH]c24)CC3)CC1 [Compound P-0622, (R)-1-(4-(2-(5,6-dihydro-1H-cyclobuta[f]indazol-7-yl)-1,1-difluoro-2-hydroxyethyl)piperidin-1-yl)-2-morpholinoethan-1-one]
11 | 0.0001 to 10 | 0.0001 to 10 | O=C(CN1CCS(=O)(=O)CC1)N1CCC(C(F)(F)[C@H](O)c2c3c(cc4cn[nH]c24)CC3)CC1 [Compound P-0623, (R)-1-(4-(2-(5,6-dihydro-1H-cyclobuta[f]indazol-7-yl)-1,1-difluoro-2-hydroxyethyl)piperidin-1-yl)-2-(1,1-dioxidothiomorpholino) ethan-1-one]
12 | 0.0001 to 10 | 0.0001 to 10 | O=C(CC1CCS(=O)(=O)CC1)N1CCC(C(F)(F)[C@H](O)c2c3c(cc4cn[nH]c24)CC3)CC1 [Compound P-0624, (R)-1-(4-(2-(5,6-dihydro-1H-cyclobuta[f]indazol-7-yl)-1,1-difluoro-2-hydroxyethyl)piperidin-1-yl)-2-(1,1-dioxidotetrahydro-2H-thiopyran-4-yl)ethan-1-one]
13 | 0.0001 to 10 | 0.0001 to 10 | O=C(Cc1ccc(F)c(Cl)c1)N1CCC(C(F)(F)[C@H](O)c2c3c(cc4cn[nH]c24)CC3)CC1 [Compound P-0625, (R)-2-(3-chloro-4-fluorophenyl)-1-(4-(2-(5,6-dihydro-1H-cyclobuta[f]indazol 7-yl)-1,1-difluoro-2-hydroxyethyl)piperidin-1-yl) ethan-1-one]
14 | 0.0001 to 10 | 0.0001 to 10 | O=C(Cc1ccc(Cl)c(F)c1)N1CCC(C(F)(F)[C@H](O)c2c3c(cc4cn[nH]c24)CC3)CC1 [Compound P-0626, (R)-2-(4-chloro-3-fluorophenyl)-1-(4-(2-(5,6-dihydro-1H-cyclobuta[f]indazol-7-yl)-1,1-difluoro-2-hydroxyethyl)piperidin-1-yl) ethan-1-one]
15 | 0.0001 to 10 | 0.0001 to 10 | CCNC(=O)N1CCC(C(F)(F)[C@H](O)c2c3c(cc4cn[nH]c24)CC3)CC1 [Compound P-0627, (R)-4-(2-(5,6-dihydro-1H-cyclobuta[f]indazol-7-yl)-1,1-difluoro-2-hydroxyethyl)-N-ethylpiperidine-1-carboxamide]
16 | 0.0001 to 10 | 0.0001 to 10 | O=C(NC1CC1)N1CCC(C(F)(F)[C@H](O)c2c3c(cc4cn[nH]c24)CC3)CC1 [Compound P-0628, (R)-N-cyclopropyl-4-(2-(5,6-dihydro-1H-cyclobuta[f]indazol-7-yl)-1,1-difluoro-2-hydroxyethyl) piperidine-1-carboxamide]
17 | 0.0001 to 10 | 0.0001 to 10 | O=C(NC1CCC1)N1CCC(C(F)(F)[C@H](O)c2c3c(cc4cn[nH]c24)CC3)CC1 [Compound P-0629, (R)-N-cyclobutyl-4-(2-(5,6-dihydro-1H-cyclobuta[f]indazol-7-yl)-1,1-difluoro-2-hydroxyethyl) piperidine-1-carboxamide]
18 | 0.0001 to 10 | 0.0001 to 10 | COCCNC(=O)N1CCC(C(F)(F)[C@H](O)c2c3c(cc4cn[nH]c24)CC3)CC1 [Compound P-0630, (R)-4-(2-(5,6-dihydro-1H-cyclobuta[f]indazol-7-yl)-1,1-difluoro-2-hydroxyethyl)-N-(2-methoxyethyl) piperidine-1-carboxamide]
19 | 0.0001 to 10 | 0.0001 to 10 | O=C(NCC1CC1)N1CCC(C(F)(F)[C@H](O)c2c3c(cc4cn[nH]c24)CC3)CC1 [Compound P-0631, (R)-N-(cyclopropylmethyl)-4-(2-(5,6-dihydro-1H-cyclobuta[f]indazol-7-yl)-1,1-difluoro-2-hydroxyethyl) piperidine-1-carboxamide]
20 | 0.0001 to 10 | 0.0001 to 10 | O=C(Nc1cccnc1)N1CCC(C(F)(F)[C@H](O)c2c3c(cc4cn[nH]c24)CC3)CC1 [Compound P-0636, (R)-4-(2-(5,6-dihydro-1H-cyclobuta[f]indazol-7-yl)-1,1-difluoro-2-hydroxyethyl)-N-(pyridin-3-yl)piperidine-1-carboxamide]
21 | 0.0001 to 10 | 0.0001 to 10 | O=C(Nc1ccc(F)cc1)N1CCC(C(F)(F)[C@H](O)c2c3c(cc4cn[nH]c24)CC3)CC1 [Compound P-0637, (R)-4-(2-(5,6-dihydro-1H-cyclobuta[f]indazol-7-yl)-1,1-difluoro-2-hydroxyethyl)-N-(4-fluorophenyl) piperidine-1-carboxamide]
22 | 0.0001 to 10 | 0.0001 to 10 | N#Cc1ccc(NC(=O)N2CCC(C(F)(F)[C@H](O)c3c4c(cc5cn[nH]c35)CC4)CC2)cc1 [Compound P-0638, (R)-N-(4-cyanophenyl)-4-(2-(5,6-dihydro-1H-cyclobuta[f]indazol-7-yl)-1,1-difluoro-2-hydroxyethyl) piperidine-1-carboxamide]
23 | 0.0001 to 10 | 0.0001 to 10 | CC1(C(O)c2cc(Cl)c(F)c3cn[nH]c23)CC(F)(F)C1 (stereo not drawn) [Compound P-0650, (5-chloro-4-fluoro-1H-indazol-7-yl)(3,3-difluoro-1-methylcyclobutyl)methanol]
24 | 0.0001 to 10 | 0.0001 to 10 | O=C(Cc1ccnc(Cl)c1)N1CCC(C(F)(F)C(O)c2cc(Cl)cc3[nH]ncc23)CC1 (stereo not drawn) [Compound P-0657, 1-(4-(2-(6-chloro-1H-indazol-4-yl)-1,1-difluoro-2-hydroxyethyl)piperidin-1-yl)-2-(2-chloropyridin-4-yl)ethan-1-one]

Source: US10508085B2, “Compounds and methods for IDO and TDO modulation, and indications therefor” (Plexxikon Inc., priority 2016, dated 2019)
